As a reminder, the IC50 is the midpoint of a concentration-inhibition curve.

The source of these data is patent US9884048B2, “ERK inhibitors” (Merck Sharp & Dohme Corp., priority 2014, dated 2018).

The assay addresses phosphorylated active hERK2 enzyme (Homo sapiens (Human), UniProt P28482). The note with it: read-out: ERK2 IC50; IMAP-FP assay; 0.5 nM hERK2, 30 μM ATP; 10 point titration, 3 μM starting concentration.

Chain of phosphorylated active hERK2 enzyme (P28482 whole entry): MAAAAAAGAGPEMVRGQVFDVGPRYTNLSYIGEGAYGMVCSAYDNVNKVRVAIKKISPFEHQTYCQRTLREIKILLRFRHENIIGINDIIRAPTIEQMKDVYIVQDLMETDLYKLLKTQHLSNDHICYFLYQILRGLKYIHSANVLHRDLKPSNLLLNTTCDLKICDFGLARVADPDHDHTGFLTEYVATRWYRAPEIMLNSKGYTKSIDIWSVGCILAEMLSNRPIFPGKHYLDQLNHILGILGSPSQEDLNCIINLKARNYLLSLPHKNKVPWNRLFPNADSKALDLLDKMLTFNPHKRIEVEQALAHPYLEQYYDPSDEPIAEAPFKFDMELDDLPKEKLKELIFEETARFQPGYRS

For `Cc1cc(-n2ncc3cc(NC(=O)NC4CCCN(c5ccccc5)C4)ncc32)ccn1` (stereo not shown) [Example 82, 1H-pyrazolo[3,4-c]pyridin-1-[1-(2-methylpyridin-4-yl)-5-yl]-3-(1-phenylpiperidin-3-yl)urea], the IC50 is 7.61 nM.
Take `Cc1cc(-n2ncc3cc(NC(=O)NCCC4CCOC4)ncc32)ccn1` (stereo not shown) [Example 83, 1-[1-(2-methylpyridin-4-yl)-1H-pyrazolo[3,4-c]pyridin-5-yl]-3-[2-(tetrahydrofuran-3-yl)ethyl]urea]: the IC50 came to 64.7 nM.
Turning to `Cc1cc(-n2ncc3cc(NC(=O)NCc4ccc5c(c4)CNC5=O)ncc32)ccn1` [Example 84, 1-[1-(2-methylpyridin-4-yl)-1H-pyrazolo[3,4-c]pyridin-5-yl]-3-[(1-oxo-2,3-dihydro-1H-isoindol-5-yl)methyl]urea], the IC50 came out at 17.4 nM.
The value for `Cc1cc(-n2ncc3cc(NC(=O)NCCOc4ccc(F)cc4)ncc32)ccn1` [Example 85, 1-[2-(4-fluorophenoxy)ethyl]-3-[1-(2-methylpyridin-4-yl)-1H-pyrazolo[3,4-c]pyridin-5-yl)urea] was 15.9 nM.
On to `Cc1cc(-n2ncc3cc(NC(=O)NCc4ccc(C(C)(C)O)cc4)ncc32)ccn1` [Example 86, 1-[4-(1-hydroxy-1-methylethyl)benzyl]-3-[1-(2-methylpyridin-4-yl)-1H-pyrazolo[3,4-c]pyridin-5-yl)urea], for which the IC50 was determined as 731 nM.
Consider `Cc1cc(-n2ncc3cc(NC(=O)NCCOc4ccccc4F)ncc32)ccn1` [Example 87, 1-[2-(2-fluorophenoxy)ethyl]-3-[1-(2-methylpyridin-4-yl)-1H-pyrazolo[3,4-c]pyridin-5-yl)urea], for which the IC50 came to 6.38 nM.
The value for `Cc1cc(-n2ncc3cc(NC(=O)NCCC(F)(F)F)ncc32)ccn1` [Example 88, 1-[1-(2-methylpyridin-4-yl)-1H-pyrazolo[3,4-c]pyridin-5-yl]-3-(3,3,3-trifluoropropyl)urea] was 46.3 nM.
The value for `Cc1cc(-n2ncc3cc(NC(=O)N[C@H](CCO)c4ccccc4)ncc32)ccn1` [Example 89, 1-[(1R)-3-hydroxy-1-phenylpropyl]-3-[1-(2-methylpyridin-4-yl)-1H-pyrazolo[3,4-c]pyridin-5-yl)urea] was 0.821 nM; that for `COC[C@@H](NC(=O)Nc1cc2cnn(-c3ccnc(C)c3)c2cn1)c1ccccc1` [Example 90, 1-[(1S)-2-methoxy-1-phenylethyl]-3-[1-(2-methylpyridin-4-yl)-1H-pyrazolo[3,4-c]pyridin-5-yl)urea] was 0.68 nM.
Turning to `Cc1cc(-n2ncc3cc(NC(=O)NCc4ccc(N5CCCC5=O)cc4)ncc32)ccn1` [Example 91, 1-[1-(2-methylpyridin-4-yl)-1H-pyrazolo[3,4-c]pyridin-5-yl]-3-[4-(2-oxopyrrolidin-1-yl)benzyl]urea], the IC50 came to 332 nM.
Then `CNC(=O)c1ccc(CNC(=O)Nc2cc3cnn(-c4ccnc(C)c4)c3cn2)cc1` [Example 92, N-methyl-4-[({[1-(2-methylpyridin-4-yl)-1H-pyrazolo[3,4-c]pyridin-5-yl]carbamoyl}amino)methyl] benzamide], with 801 nM.
Turning to `Cc1cc(-n2ncc3cc(NC(=O)NCc4cccc(S(C)(=O)=O)c4)ncc32)ccn1` [Example 93, 1-[1-(2-methylpyridin-4-yl)-1H-pyrazolo[3,4-c]pyridin-5-yl]-3-[3-(methylsulfonyl)-benzyl]urea], the IC50 was determined as 1.44 nM.
As for `Cc1cc(-n2ncc3cc(NC(=O)NCc4cccc(-c5ncco5)c4)ncc32)ccn1` [Example 94, 1-[1-(2-methylpyridin-4-yl)-1H-pyrazolo[3,4-c]pyridin-5-yl]-3-[3-(1,3-oxazol-2-yl)benzyl]urea], the IC50 turned out to be 13.3 nM.
The value for `Cc1cc(-n2ncc3cc(NC(=O)NCCOCc4ccccc4)ncc32)ccn1` [Example 95, 1-[2-(benzyloxy)ethyl]-3-[1-(2-methylpyridin-4-yl)-1H-pyrazolo[3,4-c]pyridin-5-yl]urea] was 5.4 nM; that for `Cc1cc(-n2ncc3cc(NC(=O)NCCNCc4ccccc4)ncc32)ccn1` [Example 96, 1-[2-(benzylamino)ethyl]-3-[1-(2-methylpyridin-4-yl)-1H-pyrazolo[3,4-c]pyridin-5-yl]urea] was 19.1 nM; that for `CNC(=O)c1cccc(CNC(=O)Nc2cc3cnn(-c4ccnc(C)c4)c3cn2)c1` [Example 97, N-methyl-3-[({[1-(2-methylpyridin-4-yl)-1H-pyrazolo[3,4-c]pyridin-5-yl]carbamoyl}amino)methyl] benzamide] was 3.39 nM.
On to `Cc1cc(-n2ncc3cc(NC(=O)NCc4cccc(-c5ccon5)c4)ncc32)ccn1` [Example 98, 1-(3-isoxazol-3-ylbenzyl)-3-[1-(2-methylpyridin-4-yl)-1H-pyrazolo[3,4-c]pyridin-5-yl]urea], for which the IC50 is 1.68 nM.
Then `Cc1cc(-n2ncc3cc(NC(=O)NCC4Cc5ccccc5N(C)C4)ncc32)ccn1` (stereo not shown) [Example 99, 1-[1-(2-methylpyridin-4-yl)-1H-pyrazolo[3,4-c]pyridin-5-yl]-3-[(1-methyl-1,2,3,4-tetrahydroquinolin-3-yl)methyl]urea], with 2.31 nM.
For `Cc1cc(-n2ncc3cc(NC(=O)NCC4(N(C)C)CCCCC4)ncc32)ccn1` [Example 100, 1-{[1-(dimethylamino)cyclohexyl]methyl}-3-[1-(2-methylpyridin-4-yl)-1H-pyrazolo[3,4-c]pyridin-5-yl)urea], the IC50 amounted to 1210 nM.
`Cc1cc(-n2ncc3cc(NC(=O)N[C@H]4[C@H](c5ccccc5C)CN(C)[C@H]4C)ncc32)ccn1` [Example 101, 1-[(2S,3S,4R)-1,2-dimethyl-4-(2-methylphenyl)-pyrrolidin-3-yl]-3-[1-(2-methylpyridin-4-yl)-1H-pyrazolo[3,4-c]pyridin-5-yl)urea]: the 50% inhibitory concentration (IC50) worked out at 0.5 nM.
Regarding `Cc1cc(-n2ncc3cc(NC(=O)N[C@H]4[C@H](c5ccccc5C)CN(C)C4(C)C)ncc32)ccn1` [Example 102, 1-[1-(2-methylpyridin-4-yl)-1H-pyrazolo[3,4-c]pyridin-5-yl]-3-[(3S,4R)-1,2,2-trimethyl-4-(2-methylphenyl)pyrrolidin-3-yl)urea], the IC50 came out at 235 nM.
Turning to `Cc1cc(-n2ncc3cc(NC(=O)N[C@@H]4CN(C)C(C)(C)[C@H]4c4ccccc4C)ncc32)ccn1` [Example 103, 1-[1-(2-methylpyridin-4-yl)-1H-pyrazolo[3,4-c]pyridin-5-yl]-3-[(3S,4S)-1,5,5-trimethyl-4-(2-methylphenyl)pyrrolidin-3-yl)urea], the IC50 came out at 1.14 nM.
As for `Cc1cc(-n2ncc3cc(NC(=O)N[C@@H]4[C@@H](C)N(C)C[C@H]4c4ccccc4C)ncc32)ccn1` [Example 104, 1-[(2R,3S,4R)-1,2-dimethyl-4-(2-methyl-phenyl)pyrrolidin-3-yl]-3-[1-(2-methylpyridin-4-yl)-1H-pyrazolo[3,4-c]pyridin-5-yl]urea], the IC50 came to 35.5 nM.
For the compound `Cc1cc(-n2ncc3cc(NC(=O)N[C@@H]4CN(C)[C@@H](C)[C@H]4c4ccccc4C)ncc32)ccn1` [Example 105, 1-[(3S,4S,5S)-1,5-dimethyl-4-(2-methylphenyl)-pyrrolidin-3-yl]-3-[1-(2-methylpyridin-4-yl)-1H-pyrazolo[3,4-c]pyridin-5-yl)urea], the IC50 came out at 2.15 nM.
With `Cc1cc(-n2ncc3cc(NC(=O)N[C@@H]4CN(C)[C@H](C)[C@H]4c4ccccc4C)ncc32)ccn1` [Example 106, 1-[(3S,4S,5R)-1,5-dimethyl-4-(2-methylphenyl)-pyrrolidin-3-yl]-3-[1-(2-methylpyridin-4-yl)-1H-pyrazolo[3,4-c]pyridin-5-yl)urea], the IC50 came out at 1.52 nM.
The value for `Cc1cc(-n2ncc3cc(NC(=O)N[C@H]4[C@H](c5ccccc5)CN(C)C45COC5)ncc32)ccn1` [Example 107, 1-[(7R,8S)-5-methyl-7-phenyl-2-oxa-5-azaspiro[3.4]oct-8-yl]-3-[1-(2-methylpyridin-4-yl)-1H-pyrazolo[3,4-c]pyridin-5-yl)urea] was 9.04 nM; that for `Cc1cc(-n2ncc3cc(NC(=O)NCc4cn(C)cn4)ncc32)ccn1` [Example 108, 1-[(1-methyl-1H-imidazol-4-yl)methyl]-3-[1-(2-methylpyridin-4-yl)-1H-pyrazolo[3,4-c]pyridin-5-yl)urea] was 284 nM; that for `Cc1cc(-n2ncc3cc(NC(=O)NCCN4CCOCC4)ncc32)ccn1` [Example 109, 1-[1-(2-methylpyridin-4-yl)-1H-pyrazolo[3,4-c]pyridin-5-yl]-3-(2-morpholin-4-ylethyl)urea] was 627 nM.
For the compound `Cc1cc(-n2ncc3cc(NC(=O)NCCF)ncc32)ccn1` [Example 110, 1-(2-fluoroethyl)-3-[1-(2-methylpyridin-4-yl)-1H-pyrazolo[3,4-c]pyridin-5-yl]urea], the IC50 turned out to be 106 nM.
As for `COCCNC(=O)Nc1cc2cnn(-c3ccnc(C)c3)c2cn1` [Example 111, 1-(2-methoxyethyl)-3-[1-(2-methylpyridin-4-yl)-1H-pyrazolo[3,4-c]pyridin-5-yl)urea], the IC50 is 81.8 nM.
Regarding `Cc1cc(-n2ncc3cc(NC(=O)N[C@@H]4CN(C)C[C@H]4c4cccnc4)ncc32)ccn1` [Example 112, 1-[1-(2-methylpyridin-4-yl)-1H-pyrazolo[3,4-c]pyridin-5-yl]-3-[(3S,4R)-1-methyl-4-pyridin-3-ylpyrrolidin-3-yl)urea], the IC50 stood at 48.7 nM.
Take `Cc1cc(-n2ncc3cc(NC(=O)N[C@H]4CN(C)C[C@@H]4c4sccc4C)ncc32)ccn1` [Example 113, 1-[(3R,4S)-1-methyl-4-(3-methylthiophen-2-yl)pyrrolidin-3-yl]-3-[1-(2-methylpyridin-4-yl)-1H-pyrazolo[3,4-c]pyridin-5-yl)urea]: the IC50 is 7.11 nM.
For `Cc1cc(-n2ncc3cc(NC(=O)NCc4c(-c5ccccc5)noc4C)ncc32)ccn1` [Example 114, 1-[(5-methyl-3-phenyl-isoxazol-4-yl)methyl]-3-[1-(2-methylpyridin-4-yl)-1H-pyrazolo[3,4-c]pyridin-5-yl)urea], the IC50 amounted to 2.14 nM.
On to `Cc1cc(-n2ncc3cc(NC(=O)N[C@H]4CN(C)C[C@@H]4CCc4ccccc4)ncc32)ccn1` [Example 115, 1-[(3R,4S)-1-methyl-4-(2-phenylethyl)pyrrolidin-3-yl]-3-[1-(2-methylpyridin-4-yl)-1H-pyrazolo[3,4-c]-pyridin-5-yl)urea], for which the 50% inhibitory concentration (IC50) turned out to be 0.689 nM.
